Assay results reported in ChEMBL document CHEMBL5260811, “Drug development against tuberculosis: Impact of alkaloids” (Eur J Med Chem, 2017).
Converted amounts (≈) assume the structure as drawn. Starred links: 1 amine or outer side, 2 acyl side, 3 side chain; linkers in the order of their positions; H or OH if unused. Positions of bridges follow the written chain, without caps; N, C: chain ends. Non-standard residues stand in square brackets, D forms with d. Residues, ends and D or L forms follow the SMILES beside them. *: point of attachment. X1 = NC1=N[C@@H]([C@H](N[*:1])C(=O)[*:2])C[C@H](O)N1; ΔAla(Z-3-ureido) = NC(=O)N/C=C(\N)C(=O)O; β3hOrn = NCCC[C@H](N)CC(=O)*; Dap = NC[C@H](N)C(=O)O

Assays:
[1] = tested on: Mycobacterium tuberculosis; assay: Antimycobacterial activity against Mycobacterium tuberculosis Rv2163c harbouring pbpB gene; assay type: functional
[2] = tested on: Mycobacterium tuberculosis; assay: Antimycobacterial activity against Mycobacterium tuberculosis Rv2163c harbouring ftsI gene; assay type: functional
[3] = tested on: Mycobacterium tuberculosis; assay: Antimycobacterial activity against Mycobacterium tuberculosis harbouring katG gene; assay type: functional
[4] = tested on: Mycobacterium tuberculosis; assay: microbe, parasite or virus in culture
[5] = tested on: Mycobacterium tuberculosis; assay: microbe, parasite or virus in culture; remark: listed apart in the source
[6] = tested on: Mycobacterium tuberculosis; assay: Antimycobacterial activity against Mycobacterium tuberculosis harbouring rrs gene; assay type: functional
[7] = tested on: Mycobacterium tuberculosis; assay: Antimycobacterial activity against Mycobacterium tuberculosis Rv0006 harbouring gyrA gene; assay type: functional
[8] = tested on: Mycobacterium tuberculosis; assay: Antimycobacterial activity against Mycobacterium tuberculosis Rv0005 harbouring gyrB gene; assay type: functional
[9] = tested on: Mycobacterium tuberculosis; assay: Antimycobacterial activity against Mycobacterium tuberculosis Rv0701 harbouring rplC gene; assay type: functional
[10] = tested on: Mycobacterium tuberculosis; assay: Antimycobacterial activity against Mycobacterium tuberculosis Rv3790 harbouring DprE1 gene; assay type: functional
[11] = tested on: Mycobacterium tuberculosis; assay: Antimycobacterial activity against Mycobacterium tuberculosis Rv2068c harbouring blaC gene; assay type: functional
[12] = tested on: Mycobacterium tuberculosis; assay: Antimycobacterial activity against Mycobacterium tuberculosis Rv1484 harbouring inhA gene; assay type: functional
[13] = tested on: Mycobacterium tuberculosis; assay: Antimycobacterial activity against Mycobacterium tuberculosis harbouring pncA gene; assay type: functional
[14] = tested on: Mycobacterium tuberculosis; assay: Antimycobacterial activity against Mycobacterium tuberculosis Rv0667 harbouring rpoB gene; assay type: functional
[15] = tested on: Mycobacterium tuberculosis; assay: microbe, parasite or virus in culture; remark: listed apart in the source
[16] = tested on: Mycobacterium tuberculosis; assay: Antimycobacterial activity against Mycobacterium tuberculosis harbouring rpsL gene; assay type: functional
[17] = tested on: Mycobacterium tuberculosis; assay: Antimycobacterial activity against Mycobacterium tuberculosis Rv2196 harbouring qcrB gene; assay type: functional
[18] = tested on: Mycobacterium tuberculosis; assay: Antimycobacterial activity against multi-drug resistant Mycobacterium tuberculosis; assay type: functional
[19] = tested on: Mycobacterium tuberculosis; assay: Antimycobacterial activity against Mycobacterium tuberculosis harbouring vph gene; assay type: functional

SMILES: C[C@@H](O)[C@H]1C(=O)N2C(C(=O)O)=C(SCCNC=N)C[C@H]12 [IMIPENEM ANHYDROUS]
- MIC [1]: 0.16 µg/mL (≈ 534 nM)
- MIC [2]: 0.16 µg/mL (≈ 534 nM)

SMILES: NNC(=O)c1ccncc1 [ISONIAZID]
- MIC [3]: 0.01 µg/mL (≈ 72.9 nM)
- MIC [4]: 0.01 µg/mL (≈ 72.9 nM)
- MIC [5]: 0.01 µg/mL (≈ 72.9 nM)

SMILES: NC[C@H]1O[C@H](O[C@H]2[C@H](O)[C@@H](O[C@H]3O[C@H](CO)[C@@H](O)[C@H](N)[C@H]3O)[C@H](N)C[C@@H]2N)[C@H](O)[C@@H](O)[C@@H]1O [KANAMYCIN]
- MIC [6]: 1 µg/mL (≈ 2060 nM)

SMILES: C[C@H]1COc2c(N3CCN(C)CC3)c(F)cc3c(=O)c(C(=O)O)cn1c23.C[C@H]1COc2c(N3CCN(C)CC3)c(F)cc3c(=O)c(C(=O)O)cn1c23.O [LEVOFLOXACIN]
- MIC [7]: 0.5 µg/mL
- MIC [8]: 0.5 µg/mL

SMILES: CC(=O)NC[C@H]1CN(c2ccc(N3CCOCC3)c(F)c2)C(=O)O1 [LINEZOLID]
- MIC [9]: 0.5 µg/mL (≈ 1480 nM)

SMILES: O=c1nc(N2CCN(CC3CCCCC3)CC2)sc2c([N+](=O)[O-])cc(C(F)(F)F)cc12 [MACOZINONE]
- MIC [10]: 0.3 ng/mL (≈ 0.657 nM)

SMILES: C[C@@H](O)[C@H]1C(=O)N2C(C(=O)O)=C(S[C@@H]3CN[C@H](C(=O)N(C)C)C3)[C@H](C)[C@H]12 [MEROPENEM]
- MIC [1]: 0.5 µg/mL (≈ 1300 nM)
- MIC [11]: 0.5 µg/mL (≈ 1300 nM)

SMILES: CC1COc2c(N3CCN(C)CC3)c(F)cc3c(=O)c(C(=O)O)cn1c23 (stereo unspecified) [OFLOXACIN]
- MIC [7]: 0.125 µg/mL (≈ 346 nM)
- MIC [8]: 0.125 µg/mL (≈ 346 nM)

SMILES: O=C([C@@H](O)CO)N1CC=C(c2c(F)cc(N3C[C@H](COc4ccon4)OC3=O)cc2F)CC1 [POSIZOLID]
- MIC [9]: 0.25 µg/mL (≈ 537 nM)

SMILES: CCCc1cc(C(N)=S)ccn1 [PROTIONAMIDE]
- MIC [12]: 0.3 µg/mL (≈ 1660 nM)

SMILES: NC(=O)c1cnccn1 [PYRAZINAMIDE]
- MIC [13]: 20 µg/mL (≈ 162000 nM)

SMILES: CO[C@H]1/C=C/O[C@@]2(C)Oc3c(C)c(O)c4c(c3C2=O)C2=NC3(CCN(CC(C)C)CC3)NC2=C(NC(=O)/C(C)=C\C=C\[C@H](C)[C@H](O)[C@@H](C)[C@@H](O)[C@@H](C)[C@H](OC(C)=O)[C@@H]1C)C4=O [RIFABUTIN]
- MIC [14]: 0.015 µg/mL (≈ 17.7 nM)

SMILES: CO[C@H]1/C=C/O[C@@]2(C)Oc3c(C)c(O)c4c(O)c(c(/C=N/N5CCN(C)CC5)c(O)c4c3C2=O)NC(=O)/C(C)=C\C=C\[C@H](C)[C@H](O)[C@@H](C)[C@@H](O)[C@@H](C)[C@H](OC(C)=O)[C@@H]1C [RIFAMPIN]
- MIC [15]: 0.05 µg/mL (≈ 60.8 nM)

SMILES: CO[C@H]1/C=C/O[C@@]2(C)Oc3c(C)c(O)c4c(O)c(c(/C=N/N5CCN(C6CCCC6)CC5)c(O)c4c3C2=O)NC(=O)/C(C)=C\C=C\[C@H](C)[C@H](O)[C@@H](C)[C@@H](O)[C@@H](C)[C@H](OC(C)=O)[C@@H]1C [RIFAPENTINE]
- MIC [14]: 0.03 µg/mL (≈ 34.2 nM)

SMILES: CN[C@@H]1[C@H](O[C@H]2[C@H](O[C@H]3[C@H](O)[C@@H](O)[C@H](N=C(N)N)[C@@H](O)[C@@H]3N=C(N)N)O[C@@H](C)[C@]2(O)C=O)O[C@@H](CO)[C@H](O)[C@H]1O [STREPTOMYCIN]
- MIC [6]: 2 µg/mL (≈ 3440 nM)
- MIC [16]: 2 µg/mL (≈ 3440 nM)

SMILES: CC(=O)NC[C@H]1CN(c2ccc(N3CCSCC3)c(F)c2)C(=O)O1 [SUTEZOLID]
- MIC [9]: 0.5 µg/mL (≈ 1410 nM)

SMILES: CCc1nc2ccc(Cl)cn2c1C(=O)NCc1ccc(N2CCC(c3ccc(OC(F)(F)F)cc3)CC2)cc1 [TELACEBEC]
- MIC [17]: 2.7 nM (≈ 1.5 ng/mL)

SMILES: O=C1c2ccccc2-n2c1nc1ccccc1c2=O [TRYPTANTHRIN]
- MIC [18]: 0.016 ng/mL (≈ 0.0645 nM)

SMILES: NCCC[C@H](N)CC(=O)N[C@H]1CNC(=O)[C@H]([C@H]2C[C@H](O)NC(N)=N2)NC(=O)/C(=C/NC(N)=O)NC(=O)[C@H](CO)NC(=O)[C@H](CO)NC1=O [VIOMYCIN] (β3hOrn-[Dap]SS[ΔAla(Z-3-ureido)][X1]; lactam 1-C)
- MIC [19]: 4 µg/mL (≈ 5830 nM)
